How the values were obtained:
hERG ion channel = molecular target: T1, hERG ion channel (Homo sapiens, UniProt Q12809); test: Inhibitory effect on hERG ion channels (manual patch clamp); type: cell-based; conditions: HEK293 cells stably expressing hERG channels, read-out: hERG (IC50, manupatch)
T1 construct: host or cells: HEK293
Procedure: In this experiment, the inhibitory effect of the compound on the hERG ion channel was detected by a manual patch clamp electrophysiological method, and the cardiac safety was evaluated based on the single concentration inhibition rate or IC50 of the compound.
The cells used in this experiment were HEK293 cell lines transfected with hERG cDNA and stably expressing hERG channels (#60187, provided by BPS, P3-P23 generations were used for experimental research). The cells was cultured in a medium containing the following components: MEM medium, 10% (v/v) inactivated fetal bovine serum, 1 mM sodium pyruvate, 500 µg geneticin, 0.1 mM non-essential amino acids, 100 U penicillin-streptomycin. HEK293 hERG cells were grown in a culture flask containing the above culture solution and cultured in an incubator at 37°C and 5% CO2. […]
A manual patch clamp system (HEKA EPC-10 signal amplifier and digital conversion system, purchased from HEKA Electronics, Germany) was used to record whole-cell currents in electrophysiological experiments. […] After the hERG current recorded in the above steps reached stabilization under the continuous perfusion of extracellular solution in the recording chamber, different concentrations of the compound to be tested could be perfused until the inhibitory effect of the drug on the hERG current reached a stable state. […]

IRAK4 = molecular target: T2, IRAK4 (Homo sapiens, UniProt Q9NWZ3); test: WB detection of proteolysis (Western Blot, THP-1 cells); type: cell-based; conditions: Western Blot, THP-1 cells, 24 h
T2 sequence (Q9NWZ3 1-460): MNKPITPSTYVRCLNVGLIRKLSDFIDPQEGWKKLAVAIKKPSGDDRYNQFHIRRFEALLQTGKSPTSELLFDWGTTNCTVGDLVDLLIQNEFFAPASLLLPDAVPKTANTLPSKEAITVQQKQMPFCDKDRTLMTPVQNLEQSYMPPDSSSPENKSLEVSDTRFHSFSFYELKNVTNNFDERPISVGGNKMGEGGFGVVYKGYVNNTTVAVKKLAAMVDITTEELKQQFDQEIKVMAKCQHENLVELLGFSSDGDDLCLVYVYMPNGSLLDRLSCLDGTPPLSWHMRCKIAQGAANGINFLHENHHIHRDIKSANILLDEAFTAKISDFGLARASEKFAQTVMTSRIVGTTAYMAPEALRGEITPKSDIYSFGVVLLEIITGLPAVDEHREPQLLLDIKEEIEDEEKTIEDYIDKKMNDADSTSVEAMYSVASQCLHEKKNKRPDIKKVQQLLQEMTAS
Procedure, shortened: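 IRAK4 level in RIPA lysates read by Western blot with Odyssey imaging; values from bell-shaped non-linear fit with two four-parameter sections (Plateau1, Plateau2, Dip, LogEC50_1/2, nH1/2).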

T1 sequence (Q12809 whole entry): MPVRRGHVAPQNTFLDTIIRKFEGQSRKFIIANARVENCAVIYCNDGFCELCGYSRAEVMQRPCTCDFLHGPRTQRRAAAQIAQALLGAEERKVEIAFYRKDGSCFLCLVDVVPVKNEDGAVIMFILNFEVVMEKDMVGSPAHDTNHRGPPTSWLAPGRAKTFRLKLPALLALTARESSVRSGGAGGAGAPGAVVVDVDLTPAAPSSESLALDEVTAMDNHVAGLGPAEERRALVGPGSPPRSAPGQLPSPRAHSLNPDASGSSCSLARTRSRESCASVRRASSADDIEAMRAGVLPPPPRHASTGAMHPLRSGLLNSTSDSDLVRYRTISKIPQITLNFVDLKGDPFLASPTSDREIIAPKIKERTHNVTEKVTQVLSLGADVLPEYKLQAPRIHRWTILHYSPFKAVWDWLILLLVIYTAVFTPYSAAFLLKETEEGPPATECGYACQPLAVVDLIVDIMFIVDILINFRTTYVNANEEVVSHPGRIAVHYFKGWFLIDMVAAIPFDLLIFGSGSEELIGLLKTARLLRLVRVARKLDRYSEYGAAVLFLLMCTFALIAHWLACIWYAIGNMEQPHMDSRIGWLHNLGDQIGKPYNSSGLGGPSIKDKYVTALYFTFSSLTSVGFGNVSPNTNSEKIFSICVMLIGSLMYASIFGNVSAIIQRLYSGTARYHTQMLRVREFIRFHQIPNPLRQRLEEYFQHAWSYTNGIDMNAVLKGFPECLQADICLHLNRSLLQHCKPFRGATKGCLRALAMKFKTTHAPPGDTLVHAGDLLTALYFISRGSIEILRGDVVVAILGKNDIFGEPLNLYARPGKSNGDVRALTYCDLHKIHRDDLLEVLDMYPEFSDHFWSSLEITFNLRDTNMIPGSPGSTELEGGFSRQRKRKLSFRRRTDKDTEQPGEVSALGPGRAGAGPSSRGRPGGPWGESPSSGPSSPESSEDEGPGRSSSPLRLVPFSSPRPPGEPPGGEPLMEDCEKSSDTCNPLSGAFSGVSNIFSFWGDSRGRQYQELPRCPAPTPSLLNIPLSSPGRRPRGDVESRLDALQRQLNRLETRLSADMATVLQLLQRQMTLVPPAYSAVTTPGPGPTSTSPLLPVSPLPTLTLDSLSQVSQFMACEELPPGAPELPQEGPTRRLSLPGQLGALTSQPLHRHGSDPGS

Cn1c(=O)n(C2CCC(=O)NC2=O)c2cccc(N3CCC(N4CCN(C[C@H]5CC[C@H](n6cc(-n7cc(-c8cnn9ccc(N%10CCC[C@H](O)C%10)nc89)nn7)c(C(F)F)n6)CC5)CC4)CC3)c21 (stereo partly drawn) [Example 146]
IC50 (hERG ion channel): 7.06 µM
DC50 (IRAK4; read-out: DC50): < 0.01 µM
Dmax (IRAK4; read-out: Dmax): > 70%
